In article PMC6789174 (Drug Design, Development and Therapy, 2019):
In brackets after ≈: the same amount, converted by molar mass. Read-outs that look alike come from different tables or passages of the source. Each block holds one molecule with its values, some of them ahead of it.

Legend:
Acetylcholinesterase = Acetylcholinesterase (Homo sapiens, UniProt P22303); experiment: biochemical
[1] = DPPH free radical scavenging
[2] = tested on: Agrobacterium tumefaction; experiment: Anti-bacterial activity, agar well diffusion; type: cell-based
porcine α-amylase = biological target: T1, porcine α-amylase (Sus scrofa, UniProt P00690); experiment: biochemical
T1 sequence (P00690 16-511): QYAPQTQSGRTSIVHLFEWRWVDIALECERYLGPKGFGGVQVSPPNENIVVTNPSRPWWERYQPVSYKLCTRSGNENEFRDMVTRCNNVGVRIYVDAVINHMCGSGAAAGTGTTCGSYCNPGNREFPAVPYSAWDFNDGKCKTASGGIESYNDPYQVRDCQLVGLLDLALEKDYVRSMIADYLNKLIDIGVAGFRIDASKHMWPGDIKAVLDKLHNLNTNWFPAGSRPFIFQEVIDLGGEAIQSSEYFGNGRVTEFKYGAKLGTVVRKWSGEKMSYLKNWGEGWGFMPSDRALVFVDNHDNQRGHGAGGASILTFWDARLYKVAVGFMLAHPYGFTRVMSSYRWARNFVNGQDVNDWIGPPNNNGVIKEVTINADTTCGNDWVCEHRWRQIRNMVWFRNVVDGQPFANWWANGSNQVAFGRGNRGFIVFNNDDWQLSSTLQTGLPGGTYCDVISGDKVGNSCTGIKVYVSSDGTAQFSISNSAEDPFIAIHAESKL

glucose-6-phosphatase = biological target: T2, glucose-6-phosphatase (Homo sapiens, UniProt P35575); experiment: Glucose-6-phosphatase activity; type: biochemical; conditions: for Total Activity of glucose-6-phosphatase: 33°C, pH 6.7, control 72.0
T2 sequence (P35575 1-357): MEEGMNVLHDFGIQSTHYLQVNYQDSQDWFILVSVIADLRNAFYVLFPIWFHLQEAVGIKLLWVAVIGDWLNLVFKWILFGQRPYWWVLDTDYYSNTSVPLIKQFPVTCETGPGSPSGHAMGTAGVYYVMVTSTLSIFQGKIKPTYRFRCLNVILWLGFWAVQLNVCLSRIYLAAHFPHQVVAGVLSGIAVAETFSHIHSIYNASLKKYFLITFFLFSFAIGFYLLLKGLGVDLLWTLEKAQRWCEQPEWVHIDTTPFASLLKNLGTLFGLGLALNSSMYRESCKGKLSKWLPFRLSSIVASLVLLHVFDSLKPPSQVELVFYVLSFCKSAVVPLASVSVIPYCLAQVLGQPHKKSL

Proteus vulgaris = experiment: Anti-bacterial activity, agar well diffusion; type: cell-based
Staphylococcus aureus = experiment: Anti-bacterial activity, agar well diffusion; type: cell-based
Butyrylcholinesterase = Butyrylcholinesterase (Homo sapiens, UniProt P06276); experiment: Anticholinesterase assay; type: biochemical
Chain of Butyrylcholinesterase (P06276 29-602): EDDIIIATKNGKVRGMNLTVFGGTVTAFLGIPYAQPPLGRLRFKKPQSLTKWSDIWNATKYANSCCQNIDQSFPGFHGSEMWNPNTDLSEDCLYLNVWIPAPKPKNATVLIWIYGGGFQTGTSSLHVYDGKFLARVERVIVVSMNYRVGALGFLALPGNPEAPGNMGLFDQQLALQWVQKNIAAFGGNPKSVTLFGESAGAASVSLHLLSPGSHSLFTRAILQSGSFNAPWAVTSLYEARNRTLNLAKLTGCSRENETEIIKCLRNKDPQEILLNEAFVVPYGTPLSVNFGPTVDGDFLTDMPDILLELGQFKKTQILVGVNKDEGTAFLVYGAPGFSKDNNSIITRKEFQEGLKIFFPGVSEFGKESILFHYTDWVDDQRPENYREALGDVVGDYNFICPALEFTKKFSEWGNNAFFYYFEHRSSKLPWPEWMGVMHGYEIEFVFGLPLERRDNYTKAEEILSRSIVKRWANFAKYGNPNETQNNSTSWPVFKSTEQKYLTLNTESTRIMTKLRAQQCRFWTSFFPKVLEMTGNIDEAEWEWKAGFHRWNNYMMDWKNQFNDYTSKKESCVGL

[3] = ABTS free radical scavenging
α-glucosidase = α-glucosidase (Saccharomyces cerevisiae, UniProt P53341); experiment: Alpha glucosidase inhibition; type: biochemical
Chain of α-glucosidase (P53341 whole entry): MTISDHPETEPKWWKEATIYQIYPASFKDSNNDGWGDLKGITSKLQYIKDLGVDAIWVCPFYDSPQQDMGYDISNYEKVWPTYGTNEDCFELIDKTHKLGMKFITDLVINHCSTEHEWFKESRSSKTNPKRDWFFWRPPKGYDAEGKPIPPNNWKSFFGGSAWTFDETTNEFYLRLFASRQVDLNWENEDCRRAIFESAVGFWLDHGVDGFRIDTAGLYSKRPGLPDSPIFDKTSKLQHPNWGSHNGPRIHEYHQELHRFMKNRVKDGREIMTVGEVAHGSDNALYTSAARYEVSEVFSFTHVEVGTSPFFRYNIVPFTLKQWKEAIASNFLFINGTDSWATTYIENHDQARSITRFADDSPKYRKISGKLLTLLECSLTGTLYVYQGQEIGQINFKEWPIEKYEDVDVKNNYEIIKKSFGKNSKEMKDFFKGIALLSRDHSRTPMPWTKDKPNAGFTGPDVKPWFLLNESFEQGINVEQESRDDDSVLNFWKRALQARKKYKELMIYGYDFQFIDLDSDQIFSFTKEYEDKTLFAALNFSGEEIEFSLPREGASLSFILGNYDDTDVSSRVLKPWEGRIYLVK

[4] = read-out: %AChE Inhibition (mean ± SEM)
[5] = read-out: ZI (Zone of inhibition), Agrobacterium tumefaction
[6] = read-out: ZI (Zone of inhibition), Proteus vulgaris
[7] = read-out: ZI (Zone of inhibition), Staphylococcus aureus
[8] = read-out: %BChE Inhibition (mean ± SEM)
[9] = read-out: %Inhibition (mean ± SEM), alpha amylase

Chain of Acetylcholinesterase (P22303 32-614, species assumed): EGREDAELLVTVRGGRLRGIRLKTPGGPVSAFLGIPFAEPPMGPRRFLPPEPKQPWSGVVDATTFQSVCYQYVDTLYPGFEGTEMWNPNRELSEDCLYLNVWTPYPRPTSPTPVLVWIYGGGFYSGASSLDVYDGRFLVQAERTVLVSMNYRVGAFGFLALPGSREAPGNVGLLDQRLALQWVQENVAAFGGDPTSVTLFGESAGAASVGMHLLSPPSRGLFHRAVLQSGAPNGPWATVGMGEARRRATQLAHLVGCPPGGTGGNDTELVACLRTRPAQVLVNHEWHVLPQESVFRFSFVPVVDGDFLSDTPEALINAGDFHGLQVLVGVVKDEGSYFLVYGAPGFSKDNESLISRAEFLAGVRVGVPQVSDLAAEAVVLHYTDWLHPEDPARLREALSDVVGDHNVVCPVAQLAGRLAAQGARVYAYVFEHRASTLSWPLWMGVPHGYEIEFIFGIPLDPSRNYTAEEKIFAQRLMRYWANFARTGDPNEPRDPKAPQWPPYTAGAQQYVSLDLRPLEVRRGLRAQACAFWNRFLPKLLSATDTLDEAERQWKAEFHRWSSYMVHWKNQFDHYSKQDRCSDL

SMILES: Fc1ccccc1NC(=S)Nc1ccccc1 [Compound V, 1-(2-fluorophenyl)-3-phenylthiourea]
- IC50 (Acetylcholinesterase): 739 µM
- inhibition at 125 µg/mL (Acetylcholinesterase; [4]): 51.8 ± 1.72%
- inhibition at 250 µg/mL (Acetylcholinesterase; [4]): 56.3 ± 2.14%
- inhibition at 500 µg/mL (Acetylcholinesterase; [4]): 68.2 ± 1.25%
- inhibition at 1000 µg/mL (Acetylcholinesterase; [4]): 70.2 ± 1.09%
- DPPH IC50 [1]: 70 µg/mL
- DPPH % I (mean ± S.E.M) ([1]; concentration 125 μg/mL): 68.83 ± 1.53%
- DPPH % I (mean ± S.E.M) ([1]; concentration 250 μg/mL): 70.55 ± 1.27%
- DPPH % I (mean ± S.E.M) ([1]; concentration 500 μg/mL): 71.50 ± 1.61%
- DPPH % I (mean ± S.E.M) ([1]; concentration 1000 μg/mL): 73.14 ± 1.10%
- MIC ([2]; read-out: MIC, Agrobacterium tumefaction): 11.6 µg/mL (≈ 47.1 µM)
- zone of inhibition at 10 µg/mL [2, 5]: 15 mm
- zone of inhibition at 20 µg/mL [2, 5]: 20 mm
- zone of inhibition at 30 µg/mL [2, 5]: 25 mm
- IC50 (porcine α-amylase): 406 µM
- inhibition at 125 µg/mL (porcine α-amylase; read-out: %Inhibition (mean ± SEM), alpha amylase, concentration 125 µg/mL): 52.1 ± 2.11%
- inhibition at 250 µg/mL (porcine α-amylase; read-out: %Inhibition (mean ± SEM), alpha amylase, concentration 250 µg/mL): 55.91 ± 0.43%
- inhibition at 500 µg/mL (porcine α-amylase; read-out: %Inhibition (mean ± SEM), alpha amylase, concentration 500 µg/mL): 59.5 ± 1.24%
- inhibition at 1000 µg/mL (porcine α-amylase; read-out: %Inhibition (mean ± SEM), alpha amylase, concentration 1000 µg/mL): 62.8 ± 1.13%
- Glucose-6-phosphatase inhibition, in words (glucose-6-phosphatase; compared to control experiments): most potent inhibitors
- Total Activity of glucose-6-phosphatase (glucose-6-phosphatase; concentration 125 µg/mL): 05.66 mg of P released per hour
- Total Activity of glucose-6-phosphatase (glucose-6-phosphatase; concentration 250 µg/mL): 05.21 mg of P released per hour
- Total Activity of glucose-6-phosphatase (glucose-6-phosphatase; concentration 500 µg/mL): 04.16 mg of P released per hour
- MIC (Proteus vulgaris; read-out: MIC, Proteus vulgaris): 8.94 µg/mL (≈ 36.3 µM)
- zone of inhibition at 10 µg/mL (Proteus vulgaris; [6]): 16 mm
- zone of inhibition at 20 µg/mL (Proteus vulgaris; [6]): 21 mm
- zone of inhibition at 30 µg/mL (Proteus vulgaris; [6]): 24 mm
- MIC (Staphylococcus aureus; read-out: MIC, Staphylococcus aureus): 24.1 µg/mL (≈ 97.9 µM)
- zone of inhibition at 10 µg/mL (Staphylococcus aureus; [7]): 12 mm
- zone of inhibition at 20 µg/mL (Staphylococcus aureus; [7]): 14 mm
- zone of inhibition at 30 µg/mL (Staphylococcus aureus; [7]): 16 mm
- IC50 (Butyrylcholinesterase): 406 µM
- inhibition at 125 µg/mL (Butyrylcholinesterase; [8]): 53.07 ± 0.48%
- inhibition at 250 µg/mL (Butyrylcholinesterase; [8]): 55.1 ± 1.04%
- inhibition at 500 µg/mL (Butyrylcholinesterase; [8]): 59.1 ± 1.76%
- inhibition at 1000 µg/mL (Butyrylcholinesterase; [8]): 62.7 ± 1.22%
- ABTS IC50 [3]: 85 µg/mL
- ABTS % I (mean ± S.E.M) ([3]; concentration 125 μg/mL): 69.45 ± 1.29%
- ABTS % I (mean ± S.E.M) ([3]; concentration 250 μg/mL): 71.14 ± 1.90%
- ABTS % I (mean ± S.E.M) ([3]; concentration 500 μg/mL): 73.18 ± 1.46%
- ABTS % I (mean ± S.E.M) ([3]; concentration 1000 μg/mL): 75.04 ± 0.10%

- %Inhibition (mean ± SEM), alpha glucosidase (α-glucosidase): 94.02 ± 1.23%
- %Inhibition (mean ± SEM), alpha glucosidase (α-glucosidase; concentration 125 μg/mL): 59.83 ± 2.04%
- %Inhibition (mean ± SEM), alpha glucosidase (α-glucosidase; concentration 250 μg/mL): 68.14 ± 2.18%
- %Inhibition (mean ± SEM), alpha glucosidase (α-glucosidase; concentration 500 μg/mL): 79.11 ± 2.12%
- inhibition at 125 µg/mL (porcine α-amylase; [9]): 58.1 ± 1.34%
- inhibition at 500 µg/mL (porcine α-amylase; [9]): 73 ± 1.34%
- inhibition at 1000 µg/mL (porcine α-amylase; [9]): 88.1 ± 1.13%
SMILES: C[C@H]1O[C@H](O[C@H]2[C@H](O)[C@@H](O)[C@@H](O[C@H]3[C@H](O)[C@@H](O)C(O)O[C@@H]3CO)O[C@@H]2CO)[C@H](O)[C@@H](O)[C@@H]1N[C@H]1C=C(CO)[C@@H](O)[C@H](O)[C@H]1O (stereo partly drawn) [Acarbose]

SMILES: COc1ccc2c3c1O[C@H]1C[C@@H](O)C=C[C@@]31CCN(C)C2 [Galantamine, reference compound]
- %BChE Inhibition (mean ± SEM) (Butyrylcholinesterase; concentration 500 μg/mL): 87.16 ± 1.23%
- inhibition at 125 µg/mL (Butyrylcholinesterase; [8]): 64.8 ± 0.73%
- inhibition at 1000 µg/mL (Butyrylcholinesterase; [8]): 92.3 ± 0.74%
